{"source": "patent US20030166673A1", "about": "“Medicines for the prevention and treatment of neurodegenerative diseases” (priority 2001, published 2003)", "test_system": "vacuolized neurons in the PC/RS cortex (MK-801-induced neuronopathy)", "experiment": "Inhibitory effect on MK-801-induced neurodegeneration (number of vacuolized neurons)", "assay_type": "in vivo, mice (Std-ddY male)", "experimental": "The pharmacological test was carried out according to the method of D. F. Wozniak, et al. [Brain Research, Vol. 707, pp 165-178 (1996)].\nThe cerebrum was cut transversely from the anterior termination at approximately 4 mm to the posterior termination, and then embedded in cold polymerized resin (Technovit7100, manufactured by Kulzer in Germany). The slices containing the PC/RS cortex were obtained at four Anterior-Posterior levels at intervals of 300 μm from the exposed section of the block, and at each level two slices (3 μm in thickness) were consecutively obtained. The histological change (on Hematoxylin and eosin stain specimen) and the number of vacuolized neurons (on Nissl stain specimen) were observed by a light microscope for each 4 slices, respectively.", "key": {"[1]": {"conditions": "individual mouse, Compound A 1 mg/kg p.o. 30 min before MK-801 1 mg/kg s.c., 5 h after MK-801, PC/RS cortex"}}, "note": "Several values for one entry are separate records, joined by “and”; a condition that tells them apart may be missing. Equal entries are not always repeated.", "data": [{"smiles": "COc1cccc(-c2nccc3[nH]c(=O)c(-c4noc(C)n4)cc23)c1", "note": "[Compound A, 3-(5-Methyl-1,2,4-oxadiazol-3-yl)-5-(3-methoxyphenyl)-1,6-naphthyridin-2(1H)-one]", "values": [{"measurement": "Vacuolization, Mean(/slice) Group", "setting": "group mean of three mice, Compound A 1 mg/kg p.o. + MK-801 1 mg/kg s.c., 5 h", "result": "4.3 /slice"}, {"measurement": "Vacuolization, Slice No. 1", "setting": "[1]", "result": "0 (2×) and 20"}, {"measurement": "Vacuolization, Slice No. 2", "setting": "[1]", "result": "0 (2×) and 12"}, {"measurement": "Vacuolization, Slice No. 3", "setting": "[1]", "result": "0 and 10 and 2"}, {"measurement": "Vacuolization, Slice No. 4", "setting": "[1]", "result": "0 and 5 and 2"}, {"measurement": "Vacuolization, Mean(/slice) Individual", "setting": "mean of 4 slices per mouse, Compound A 1 mg/kg p.o. + MK-801 1 mg/kg s.c., 5 h", "result": "0.0 /slice and 11.8 /slice and 1.0 /slice"}, {"measurement": "retardation or inhibition of neurodegeneration in the PC/RS cortex induced by MK-801 (in words)", "setting": "mice, Compound A 1 mg/kg p.o. before MK-801 1 mg/kg s.c.", "result": "potent retardation or inhibition of neurodegeneration"}]}]}
